# ± gives the standard deviation of the averaged measurements.
# How the values were obtained:
# [1] = compound: CCN(CC)CCCCNc1ncc2cc(-c3cc(OC)cc(OC)c3)c(NC(=O)NC(C)(C)C)nc2n1; assay: surviving fraction relative to DMSO-only wells; higher = less growth inhibition; settings: exposure time: 5 days
# Outline: (§1)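 Five days of continuous inhibitor exposure, at 0.5, 1, 5, 10, 50, 100, 500 and 1000 nM, followed a 24-hour period after log-phase tumour cell lines were seeded at 250–500 cells per well in 384-well plates. Surviving fraction was derived from CellTiter-Glo luminescence relative to the median of DMSO-only wells. Plates were read after 10 minutes at room temperature, and lines screened three times were kept only if replicate Pearson r >0.7 and median Z' >0.3.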
# [2] = compound: T1, CN(C)CC[C@H](CSc1ccccc1)Nc1ccc(S(=O)(=O)NC(=O)c2ccc(N3CCN(Cc4ccccc4-c4ccc(Cl)cc4)CC3)cc2)cc1[N+](=O)[O-] [ABT-737]; assay: as above; settings: exposure time: 5 days
# Outline: as §1
# [3] = compound: T2, CN1CC[C@H](c2c(O)cc(O)c3c(=O)cc(-c4ccccc4Cl)oc23)[C@H](O)C1 [FLAVOPIRIDOL]; assay: as above; settings: exposure time: 5 days
# Outline: as §1
# [4] = compound: T3, O=c1[nH]cc(F)c(=O)[nH]1 [FLUOROURACIL]; assay: as above; settings: exposure time: 5 days
# Outline: as §1
# [5] = compound: T4, CS(=O)(=O)c1ccc(C(=O)Nc2ccc(Cl)c(-c3ccccn3)c2)c(Cl)c1 [VISMODEGIB]; assay: as above; settings: exposure time: 5 days
# Outline: as §1
# [6] = compound: T5, Nc1ncn([C@H]2C[C@H](O)[C@@H](CO)O2)c(=O)n1 [DECITABINE]; assay: as above; settings: exposure time: 5 days
# Outline: as §1
# [7] = compound: T6, CS(=O)(=O)CCNCc1ccc(-c2ccc3ncnc(Nc4ccc(OCc5cccc(F)c5)c(Cl)c4)c3c2)o1 [LAPATINIB]; assay: as above; settings: exposure time: 5 days
# Outline: as §1
# [8] = compound: T7, COc1cc2c(cc1O)CC[C@@H]1[C@@H]2CC[C@]2(C)[C@@H](O)CC[C@@H]12 [2-METHOXYESTRADIOL]; assay: as above; settings: exposure time: 5 days
# Outline: as §1
# [9] = compound: T8, COc1ccc(C2=N[C@@H](c3ccc(Cl)cc3)[C@@H](c3ccc(Cl)cc3)N2C(=O)N2CCNC(=O)C2)c(OC(C)C)c1 [NUTLIN3]; assay: as above; settings: exposure time: 5 days
# Outline: as §1
# [10] = compound: T9, Oc1ccc(/C=C/c2cc(O)cc(O)c2)cc1 [RESVERATROL]; assay: as above; settings: exposure time: 5 days
# Outline: as §1
# [11] = compound: T10, CC[C@@H](C(=O)[C@@H](C)[C@@H](O)[C@H](C)[C@@H]1O[C@@H]([C@@H](CC)C(=O)O)CC[C@@H]1C)[C@H]1O[C@]2(C=C[C@@H](O)[C@]3(CC[C@@](C)([C@H]4CC[C@](O)(CC)[C@H](C)O4)O3)O2)[C@H](C)C[C@@H]1C [SALINOMYCIN]; assay: as above; settings: exposure time: 5 days
# Outline: as §1
# [12] = compound: T11, COc1cccc2c1C(=O)c1c(O)c3c(c(O)c1C2=O)C[C@@](O)(C(=O)CO)C[C@@H]3O[C@H]1C[C@H](N)[C@H](O)[C@H](C)O1 [DOXORUBICIN]; assay: as above; settings: exposure time: 5 days
# Outline: as §1
# [13] = compound: T12, C=CCNC1=C2C[C@@H](C)C[C@H](OC)[C@H](O)[C@@H](C)/C=C(\C)[C@H](OC(N)=O)[C@@H](OC)/C=C\C=C(/C)C(=O)NC(=CC1=O)C2=O [17-AAG]; assay: as above; settings: exposure time: 5 days
# Outline: as §1
# [14] = compound: CCN(CC)CCCCNc1ncc2cc(-c3cc(OC)cc(OC)c3)c(NC(=O)NC(C)(C)C)nc2n1; assay: area under dose-response curve of surviving fraction (unscaled, Aref=0) (surviving fraction x log10(nM)); higher = more resistant; settings: exposure time: 5 days; dose range 0.5-1000 nM
# Outline: (§2)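 Tumour cell lines in 384-well plates were exposed to eight inhibitor concentrations, from 0.5 to 1000 nM, for five days, and viability was read by CellTiter-Glo luminescence in three screens per line. Signals were normalised to DMSO-only wells, and 3-parameter logistic regression in the drc R package fitted dose-response survival curves to the surviving fractions. Area under the curve is given as the unscaled activity area. That area is taken over log10 dose with Aref = 0.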
# [15] = compound: T1, ABT-737; assay: as above; settings: exposure time: 5 days; dose range 0.5-1000 nM
# Outline: as §2
# [16] = compound: T2, FLAVOPIRIDOL; assay: as above; settings: exposure time: 5 days; dose range 0.5-1000 nM
# Outline: as §2
# [17] = compound: T3, FLUOROURACIL; assay: as above; settings: exposure time: 5 days; dose range 0.5-1000 nM
# Outline: as §2
# [18] = compound: T4, VISMODEGIB; assay: as above; settings: exposure time: 5 days; dose range 0.5-1000 nM
# Outline: as §2
# [19] = compound: T5, DECITABINE; assay: as above; settings: exposure time: 5 days; dose range 0.5-1000 nM
# Outline: as §2
# [20] = compound: T6, LAPATINIB; assay: as above; settings: exposure time: 5 days; dose range 0.5-1000 nM
# Outline: as §2
# [21] = compound: T7, 2-METHOXYESTRADIOL; assay: as above; settings: exposure time: 5 days; dose range 0.5-1000 nM
# Outline: as §2
# [22] = compound: T8, NUTLIN3; assay: as above; settings: exposure time: 5 days; dose range 0.5-1000 nM
# Outline: as §2
# [23] = compound: T9, RESVERATROL; assay: as above; settings: exposure time: 5 days; dose range 0.5-1000 nM
# Outline: as §2
# [24] = compound: T10, SALINOMYCIN; assay: as above; settings: exposure time: 5 days; dose range 0.5-1000 nM
# Outline: as §2
# [25] = compound: T11, DOXORUBICIN; assay: as above; settings: exposure time: 5 days; dose range 0.5-1000 nM
# Outline: as §2
# [26] = compound: T12, 17-AAG; assay: as above; settings: exposure time: 5 days; dose range 0.5-1000 nM
# Outline: as §2
test system,measurement,setting,value
HS57T BREAST,surviving fraction,[1]; 0.5 nM,0.932 ± 0.022
same,surviving fraction,[1]; 1 nM,0.899 ± 0.03
same,surviving fraction,[1]; 5 nM,0.977 ± 0.067
same,surviving fraction,[1]; 10 nM,0.952 ± 0.015
same,surviving fraction,[1]; 50 nM,0.67 ± 0.03
same,surviving fraction,[1]; 100 nM,0.693 ± 0.078
same,surviving fraction,[1]; 500 nM,0.577 ± 0.021
same,surviving fraction,[1]; 1000 nM,0.579 ± 0.089
same,surviving fraction,[2]; 0.5 nM,1.03 ± 0.056
same,surviving fraction,[2]; 1 nM,1.09 ± 0.011
same,surviving fraction,[2]; 5 nM,1.08 ± 0.072
same,surviving fraction,[2]; 10 nM,1.11 ± 0.093
same,surviving fraction,[2]; 50 nM,1.04 ± 0.01
same,surviving fraction,[2]; 100 nM,1.06 ± 0.066
same,surviving fraction,[2]; 500 nM,0.981 ± 0.039
same,surviving fraction,[2]; 1000 nM,0.965 ± 0.018
same,surviving fraction,[3]; 0.5 nM,1.06 ± 0.053
same,surviving fraction,[3]; 1 nM,1.06 ± 0.015
same,surviving fraction,[3]; 5 nM,1.12 ± 0.037
same,surviving fraction,[3]; 10 nM,1.16 ± 0.035
same,surviving fraction,[3]; 50 nM,0.667 ± 0.018
same,surviving fraction,[3]; 100 nM,0.0337 ± 0.0025
same,surviving fraction,[3]; 500 nM,0.036 ± 0.001
same,surviving fraction,[3]; 1000 nM,0.0327 ± 0.0021
same,surviving fraction,[4]; 0.5 nM,1.02 ± 0.026
same,surviving fraction,[4]; 1 nM,1.04 ± 0.086
same,surviving fraction,[4]; 5 nM,1.07 ± 0.056
same,surviving fraction,[4]; 10 nM,0.995 ± 0.044
same,surviving fraction,[4]; 50 nM,0.972 ± 0.044
same,surviving fraction,[4]; 100 nM,1 ± 0.041
same,surviving fraction,[4]; 500 nM,0.926 ± 0.059
same,surviving fraction,[4]; 1000 nM,0.734 ± 0.061
same,surviving fraction,[5]; 0.5 nM,0.986 ± 0.066
same,surviving fraction,[5]; 1 nM,0.987 ± 0.04
same,surviving fraction,[5]; 5 nM,1.01 ± 0.062
same,surviving fraction,[5]; 10 nM,1.04 ± 0.055
same,surviving fraction,[5]; 50 nM,1.04 ± 0.028
same,surviving fraction,[5]; 100 nM,0.959 ± 0.038
same,surviving fraction,[5]; 500 nM,0.991 ± 0.037
same,surviving fraction,[5]; 1000 nM,0.978 ± 0.021
same,surviving fraction,[6]; 0.5 nM,0.976 ± 0.049
same,surviving fraction,[6]; 1 nM,0.99 ± 0.026
same,surviving fraction,[6]; 5 nM,1.06 ± 0.027
same,surviving fraction,[6]; 10 nM,0.972 ± 0.022
same,surviving fraction,[6]; 50 nM,0.923 ± 0.086
same,surviving fraction,[6]; 100 nM,0.904 ± 0.091
same,surviving fraction,[6]; 500 nM,0.767 ± 0.045
same,surviving fraction,[6]; 1000 nM,0.696 ± 0.078
same,surviving fraction,[7]; 0.5 nM,0.975 ± 0.054
same,surviving fraction,[7]; 1 nM,1 ± 0.022
same,surviving fraction,[7]; 5 nM,1.07 ± 0.074
same,surviving fraction,[7]; 50 nM,1.03 ± 0.044
same,surviving fraction,[7]; 100 nM,1.09 ± 0.044
same,surviving fraction,[7]; 500 nM,0.97 ± 0.04
same,surviving fraction,[7]; 1000 nM,0.933 ± 0.037
same,surviving fraction,[8]; 0.5 nM,0.919 ± 0.034
same,surviving fraction,[8]; 1 nM,0.879 ± 0.078
same,surviving fraction,[8]; 5 nM,0.95 ± 0.074
same,surviving fraction,[8]; 10 nM,0.965 ± 0.041
same,surviving fraction,[8]; 50 nM,0.936 ± 0.044
same,surviving fraction,[8]; 100 nM,0.901 ± 0.054
same,surviving fraction,[8]; 500 nM,0.326 ± 0.017
same,surviving fraction,[8]; 1000 nM,0.0817 ± 0.0051
same,surviving fraction,[9]; 0.5 nM,0.965 ± 0.045
same,surviving fraction,[9]; 1 nM,0.991 ± 0.018
same,surviving fraction,[9]; 5 nM,1.01 ± 0.045
same,surviving fraction,[9]; 10 nM,1.04 ± 0.046
same,surviving fraction,[9]; 50 nM,1.01 ± 0.023
same,surviving fraction,[9]; 100 nM,1.12 ± 0.033
same,surviving fraction,[9]; 500 nM,1.06 ± 0.027
same,surviving fraction,[9]; 1000 nM,1.04 ± 0.071
same,surviving fraction,[10]; 0.5 nM,0.971 ± 0.038
same,surviving fraction,[10]; 1 nM,1.01 ± 0.073
same,surviving fraction,[10]; 5 nM,0.984 ± 0.11
same,surviving fraction,[10]; 10 nM,1.07 ± 0.028
same,surviving fraction,[10]; 50 nM,1.02 ± 0.034
same,surviving fraction,[10]; 100 nM,1.04 ± 0.063
same,surviving fraction,[10]; 500 nM,1.01 ± 0.047
same,surviving fraction,[10]; 1000 nM,0.998 ± 0.11
same,surviving fraction,[11]; 0.5 nM,0.986 ± 0.077
same,surviving fraction,[11]; 1 nM,0.949 ± 0.062
same,surviving fraction,[11]; 5 nM,1.07 ± 0.057
same,surviving fraction,[11]; 10 nM,1.03 ± 0.042
same,surviving fraction,[11]; 50 nM,1.03 ± 0.013
same,surviving fraction,[11]; 100 nM,0.813 ± 0.036
same,surviving fraction,[11]; 500 nM,0.28 ± 0.02
same,surviving fraction,[11]; 1000 nM,0.158 ± 0.011
same,surviving fraction,[12]; 0.5 nM,0.98 ± 0.066
same,surviving fraction,[12]; 1 nM,0.906 ± 0.1
same,surviving fraction,[12]; 5 nM,0.478 ± 0.09
same,surviving fraction,[12]; 10 nM,0.318 ± 0.015
same,surviving fraction,[12]; 50 nM,0.353 ± 0.045
same,surviving fraction,[12]; 100 nM,0.124 ± 0.015
same,surviving fraction,[12]; 500 nM,0.0277 ± 0.0011
same,surviving fraction,[12]; 1000 nM,0.0273 ± 0.0011
same,surviving fraction,[13]; 0.5 nM,0.973 ± 0.08
same,surviving fraction,[13]; 1 nM,0.919 ± 0.025
same,surviving fraction,[13]; 5 nM,0.699 ± 0.064
same,surviving fraction,[13]; 10 nM,0.263 ± 0.032
same,surviving fraction,[13]; 50 nM,0.134 ± 0.011
same,surviving fraction,[13]; 100 nM,0.126 ± 0.0038
same,surviving fraction,[13]; 500 nM,0.105 ± 0.0035
same,surviving fraction,[13]; 1000 nM,0.106 ± 0.0049
HS57T LUNG,area under dose-response curve,[14],2.66
same,area under dose-response curve,[15],3.45
same,area under dose-response curve,[16],2.07
same,area under dose-response curve,[17],3.24
same,area under dose-response curve,[18],3.29
same,area under dose-response curve,[19],3.05
same,area under dose-response curve,[20],3.42
same,area under dose-response curve,[21],2.78
same,area under dose-response curve,[22],3.4
same,area under dose-response curve,[23],3.35
same,area under dose-response curve,[24],2.57
same,area under dose-response curve,[25],1.22
same,area under dose-response curve,[26],1.35

# Source: the supplement of paper PMC6045584
